Measurements taken from US20240025862A1, “SUBSTITUTED N-PHENYLURACILS AND SALTS THEREOF, AND USE THEREOF AS HERBICIDAL ACTIVE SUBSTANCES” (Bayer Aktiengesellschaft, priority 2020, published 2024).

Assays:
Type in all cases: in vivo
Oryza sativa (ORYSA) = assay: Post-emergence crop plant compatibility, greenhouse pot test (also comparative test C); conditions: 1.25 g/ha, vs untreated controls
In short: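 Rice and other crops sprayed post-emergence at one-leaf stage (2–3 weeks after sowing) with WP or EC formulations plus 0.5% additive at 600 l/ha water. Visual rating about 3 weeks later versus untreated controls (100% = dead, 0% = like control); suffixes a–c denote different doses.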

[1] = tested on: Alopecurus myosuroides (ALOMY); assay: Post-emergence herbicidal action, greenhouse pot test (also comparative test C); conditions: Alopecurus myosuroides, 504 h, rated visually after about 3 weeks vs untreated controls, 100% = plants have died; for pest or weed control at 5 g/ha: read-out: Post-emergence action at 5 g/ha against ALOMY in %; for pest or weed control at 20 g/ha: read-out: Post-emergence action at 20 g/ha against ALOMY in %
In short: (§1)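 Greenhouse pot plants in sandy loam were sprayed post-emergence at the one-leaf stage (2–3 weeks after sowing) with WP or EC formulations plus 0.5% additive at 600 l/ha water. Activity was rated visually after about 3 weeks versus untreated controls (100% = dead, 0% = like control); rates were 20 g/ha or less, and 5 g/ha or less in the comparative test.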

Setaria viridis (SETVI) = assay: as above; conditions: Setaria viridis, 504 h; for pest or weed control at 20 g/ha: read-out: Post-emergence action against SETVI; for pest or weed control at 1.25 g/ha: dosage 1.25 g/ha; for pest or weed control at 1.25 g/ha / pest or weed control at 5 g/ha: read-out: Post-emergence action against SETVI in %; for pest or weed control at 5 g/ha: dosage 5 g/ha
In short: as §1

[2] = tested on: Echinochloa crus-galli (ECHCG); assay: as above; conditions: for pest or weed control at 5 g/ha / pest or weed control at 20 g/ha: Echinochloa crus-galli, 504 h, read-out: Post-emergence action against ECHCG in %; for pest or weed control at 5 g/ha: dosage 5 g/ha; for pest or weed control at 20 g/ha: dosage 20 g/ha
In short: as §1

[3] = tested on: Matricaria inodora (MATIN); assay: as above; conditions: Tripleurospermum inodorum, 504 h, read-out: Post-emergence action against MATIN in %; for pest or weed control at 1.25 g/ha: dosage 1.25 g/ha; for pest or weed control at 20 g/ha: dosage 20 g/ha
In short: as §1

[4] = tested on: Triticum aestivum (TRZAS); assay: Post-emergence crop plant compatibility, greenhouse pot test; conditions: 1.25 g/ha, vs untreated controls
In short: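 Greenhouse-grown crop plants sprayed post-emergence at the one-leaf stage with WP or EC formulations plus 0.5% additive, at 600 l/ha water. Damage rated visually after about 3 weeks versus untreated controls (0% = like control, 100% = dead); suffixes a/b/c denote different dosages.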

Viola tricolor (VIOTR) = assay: Post-emergence herbicidal action, greenhouse pot test; conditions: Viola tricolor, 504 h, read-out: Post-emergence action against VIOTR
In short: (§2)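 Greenhouse-grown weeds in sandy loam were sprayed post-emergence at the one-leaf stage, 2–3 weeks after sowing. Compounds were formulated as WP or EC in water with 0.5% additive at 600 l/ha, at rates of 20 g/ha or less. Visual rating after about 3 weeks used a scale from 0% (like untreated control) to 100% (plants dead).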

[5] = tested on: Abutilon theophrasti (ABUTH); assay: as above; conditions: Abutilon theophrasti, 504 h, rated visually after about 3 weeks vs untreated controls, 100% = plants have died; for pest or weed control at 1.25 g/ha: read-out: Post-emergence action at 1.25 g/ha against ABUTH in %; for pest or weed control at 5 g/ha: read-out: Post-emergence action at 5 g/ha against ABUTH in %; for pest or weed control at 20 g/ha: read-out: Post-emergence action at 20 g/ha against ABUTH in %
In short: as §2

Lolium rigidum (LOLRI) = assay: as above; conditions: Lolium rigidum, 504 h, dosage 20 g/ha, read-out: Post-emergence action against LOLRI in %
In short: as §2

[6] = tested on: Amaranthus retroflexus (AMARE); assay: as above; conditions: Amaranthus retroflexus, 504 h, rated visually after about 3 weeks vs untreated controls, 100% = plants have died; for pest or weed control at 1.25 g/ha: read-out: Post-emergence action at 1.25 g/ha against AMARE in %; for pest or weed control at 5 g/ha: read-out: Post-emergence action at 5 g/ha against AMARE in %; for pest or weed control at 20 g/ha: read-out: Post-emergence action at 20 g/ha against AMARE in %
In short: as §2

[7] = tested on: Polygonum convolvulus (POLCO); assay: as above; conditions: Fallopia convolvulus, 504 h, read-out: Post-emergence action against POLCO in %
In short: as §2

Avena fatua (AVEFA) = assay: as above; conditions: Avena fatua, 504 h, 20 g/ha, rated visually after about 3 weeks vs untreated controls, 100% = plants have died, read-out: Post-emergence action at 20 g/ha against AVEFA in %
In short: as §2

[8] = tested on: Pharbitis purpurea (PHBPU); assay: as above; conditions: Ipomoea purpurea, 504 h, read-out: Post-emergence action against PHBPU in %; for pest or weed control at 1.25 g/ha: dosage 1.25 g/ha; for pest or weed control at 5 g/ha: dosage 5 g/ha; for pest or weed control at 20 g/ha: dosage 20 g/ha
In short: as §2

Veronica persica (VERPE) = assay: as above; conditions: Veronica persica, 504 h, read-out: Post-emergence action against VERPE
In short: as §2

`Cn1c(C(F)(F)F)cc(=O)n(-c2cc(Oc3ccccc3OCC(=O)OCC3CCCO3)c(Cl)cc2F)c1=O` (centres unmarked) [I.7-71, Tetrahydrofuran-2-ylmethyl (2-{2-chloro-4-fluoro-5-[3-methyl-2,6-dioxo-4-(trifluoromethyl)-3,6-dihydropyrimidin-1(2H)-yl]phenoxy}phenoxy)acetate] was tested, and the “Post-emergence action against ORYSA (crop plant compatibility)” value (Oryza sativa (ORYSA)) was 20%, the pest or weed control at 5 g/ha [1] was 80% and the pest or weed control at 20 g/ha [1] was 80%. The pest or weed control at 20 g/ha (Setaria viridis (SETVI)) was 100%, the pest or weed control at 1.25 g/ha (Setaria viridis (SETVI)) was 100% and the pest or weed control at 5 g/ha (Setaria viridis (SETVI)) was 100%. The “Post-emergence action at 1.25 g/ha against ECHCG in %” value ([2]; 1.25 g/ha, rated visually after about 3 weeks vs untreated controls, 100% = plants have died) was 100%, the pest or weed control at 5 g/ha [2] was 100% and the pest or weed control at 20 g/ha [2] was 100%. The pest or weed control at 1.25 g/ha [3] was 80%, the pest or weed control at 20 g/ha [3] was 100% and the “Post-emergence action against TRZAS (crop plant compatibility)” value [4] was 0%. For the same compound, the pest or weed control at 1.25 g/ha (Viola tricolor (VIOTR)) was 100%, the pest or weed control at 5 g/ha (Viola tricolor (VIOTR)) was 100% and the pest or weed control at 20 g/ha (Viola tricolor (VIOTR)) was 100%. For the same compound, the pest or weed control at 1.25 g/ha [5] was 100%, the pest or weed control at 5 g/ha [5] was 100% and the pest or weed control at 20 g/ha [5] was 100%. It also gave a pest or weed control at 20 g/ha (Lolium rigidum (LOLRI)) of 80%, a pest or weed control at 1.25 g/ha [6] of 100% and a pest or weed control at 5 g/ha [6] of 100%. It also gave a pest or weed control at 20 g/ha [6] of 100%, a pest or weed control at 5 g/ha ([7]; dosage 5 g/ha) of 100% and a pest or weed control at 20 g/ha ([7]; dosage 20 g/ha) of 100%. For the same compound, the pest or weed control at 20 g/ha (Avena fatua (AVEFA)) was 90%, the pest or weed control at 1.25 g/ha [8] was 100% and the pest or weed control at 5 g/ha [8] was 100%. It also gave a pest or weed control at 20 g/ha [8] of 100%, a pest or weed control at 1.25 g/ha (Veronica persica (VERPE); 1.25 g/ha) of 100% and a pest or weed control at 5 g/ha (Veronica persica (VERPE)) of 100%. The pest or weed control at 20 g/ha (Veronica persica (VERPE)) was 100%.
`Cn1c(C(F)(F)F)cc(=O)n(-c2cc(Oc3ccccc3OCC(=O)OCC[N+](=O)[O-])c(Cl)cc2F)c1=O` [I.7-183, 2-Nitroethyl (2-{2-chloro-4-fluoro-5-[3-methyl-2,6-dioxo-4-(trifluoromethyl)-3,6-dihydropyrimidin-1(2H)-yl]phenoxy}phenoxy)acetate] was tested, and the “Post-emergence action against ORYSA (crop plant compatibility)” value (Oryza sativa (ORYSA)) was 0%, the pest or weed control at 5 g/ha [1] was 80% and the pest or weed control at 20 g/ha [1] was 100%. The pest or weed control at 20 g/ha (Setaria viridis (SETVI)) was 100%, the pest or weed control at 1.25 g/ha (Setaria viridis (SETVI)) was 100% and the pest or weed control at 5 g/ha (Setaria viridis (SETVI)) was 100%. The pest or weed control at 5 g/ha [2] was 100%, the pest or weed control at 20 g/ha [2] was 100% and the pest or weed control at 1.25 g/ha [3] was 80%. The pest or weed control at 5 g/ha ([3]; dosage 5 g/ha) was 100%, the pest or weed control at 20 g/ha [3] was 100% and the “Post-emergence action against TRZAS (crop plant compatibility)” value [4] was 20%. For the same compound, the pest or weed control at 1.25 g/ha (Viola tricolor (VIOTR)) was 100%, the pest or weed control at 5 g/ha (Viola tricolor (VIOTR)) was 100% and the pest or weed control at 20 g/ha (Viola tricolor (VIOTR)) was 100%. The pest or weed control at 1.25 g/ha [5] was 100%, the pest or weed control at 5 g/ha [5] was 100% and the pest or weed control at 20 g/ha [5] was 100%. The pest or weed control at 20 g/ha (Lolium rigidum (LOLRI)) was 80%, the pest or weed control at 1.25 g/ha [6] was 100% and the pest or weed control at 5 g/ha [6] was 100%. It also gave a pest or weed control at 20 g/ha [6] of 100%, a pest or weed control at 20 g/ha (Avena fatua (AVEFA)) of 90% and a pest or weed control at 1.25 g/ha [8] of 80%. For the same compound, the pest or weed control at 5 g/ha [8] was 100%, the pest or weed control at 20 g/ha [8] was 100% and the pest or weed control at 5 g/ha (Veronica persica (VERPE)) was 100%. For the same compound, the pest or weed control at 20 g/ha (Veronica persica (VERPE)) was 100%.
